Values quoted from earlier work as cited in PubChem BioAssay AID1259409 (Chemical Carcinogenesis Research Information System (CCRIS), 2018).

Test system: rodent chemically induced tumor inhibition, incidence and multiplicity
Test: CCRIS tumor inhibitor studies
Settings: Species: MOUSE
Source text: The CCRIS database contains chemical records with carcinogenicity, mutagenicity, tumor promotion, and tumor inhibition test results. It was developed by the National Cancer Institute (NCI). Data are derived from studies cited in primary journals, current awareness tools, NCI reports, and other sources. Test results have been reviewed by experts in carcinogenesis and mutagenesis.
CCRIS provides historical information from the years 1985 - 2011. It is no longer updated.
This is an archive assay for CCRIS tumor inhibitor studies.

SMILES: S=C=NCCc1ccccc1
- tumour outcome (control, treated, inhibition, significance) (Carcinogen: 4(METHYLNITROSAMINO)1-(3-PYRIDYL)-1-BUTANONE, 64091-91-4, Dose [Inhibitor]: 0, 5 UMOL IN 0.1 ML CORN OIL WITH 10% DMSO 2 HR PRIOR TO CARCINOGEN DOSE (STUDY DURATION: 16 WK), Route [Inhibitor]: GAVAGE, Strain/Sex: STRAIN-A/FEMALE, Target Tissue: Type of Lesion: LUNG: ADENOMA, Dose [Carcinogen]: 10 UMOL IN 0.1 ML SALINE ONCE, Promoter: NONE USED): 100%, 100%, 0%, not significant
- tumour outcome (control, treated, inhibition, significance) (Carcinogen: 4-(METHYLNITROSAMINO)-1-(3-PYRIDYL)-1-BUTANONE (NNK) [64091-91-4], Dose [Inhibitor]: 1.5 UM/G DIET, BEGINNING 13 WKS AFTER CARCINOGEN/PROMOTER TREATMENT (STUDY DURATION: 42 WK), Route [Inhibitor]: DIET, Strain/Sex: A/J/FEMALE, Target Tissue: Type of Lesion: LUNG: ADENOCARCINOMA, Dose [Carcinogen]: 3 µM WEEKLY FOR 8 DOSES, Promoter: BENZO[A]PYRENE [50-32-8]): 42%, 35%, 17%, not significant
- tumour outcome (control, treated, inhibition, significance) (Carcinogen: 4-(METHYLNITROSAMINO)-1-(3-PYRIDYL)-1-BUTANONE (NNK) [64091-91-4], Dose [Inhibitor]: 1.5 UM/G DIET, BEGINNING 13 WKS AFTER CARCINOGEN/PROMOTER TREATMENT (STUDY DURATION: 42 WK), Route [Inhibitor]: DIET, Strain/Sex: A/J/FEMALE, Target Tissue: Type of Lesion: LUNG: ADENOMA, Dose [Carcinogen]: 3 µM WEEKLY FOR 8 DOSES, Promoter: BENZO[A]PYRENE [50-32-8]): 100%, 95%, 5%, not significant
- tumour outcome (control, treated, inhibition, significance) (Carcinogen: 4-(METHYLNITROSAMINO)-1-(3-PYRIDYL)-1-BUTANONE (NNK) [64091-91-4], Dose [Inhibitor]: 3 UM/G DIET, BEGINNING 13 WKS AFTER CARCINOGEN/PROMOTER TREATMENT (STUDY DURATION: 42 WK), Route [Inhibitor]: DIET, Strain/Sex: A/J/FEMALE, Target Tissue: Type of Lesion: LUNG: ADENOCARCINOMA, Dose [Carcinogen]: 3 µM WEEKLY FOR 8 DOSES, Promoter: BENZO[A]PYRENE [50-32-8]): 42%, 19%, 55%, p<0.05
- tumour outcome (control, treated, inhibition, significance) (Carcinogen: 4-(METHYLNITROSAMINO)-1-(3-PYRIDYL)-1-BUTANONE [64091-91-4] (NNK), Dose [Inhibitor]: 3 UM/G DIET, BEGINNING 13 WKS AFTER CARCINOGEN/PROMOTER TREATMENT (STUDY DURATION: 42 WK), Route [Inhibitor]: DIET, Strain/Sex: A/J/FEMALE, Target Tissue: Type of Lesion: LUNG: ADENOMA, Dose [Carcinogen]: 3 µM WEEKLY FOR 8 DOSES, Promoter: BENZO[A]PYRENE [50-32-8]): 100%, 100%, 0%, not significant
- tumour outcome (control, treated, inhibition, significance) (Carcinogen: 4-(METHYLNITROSAMINO)-1-(3-PYRIDYL)-1-BUTANONE [64091-91-4], BENZO[A]PYRENE [50-32-8], Dose [Inhibitor]: 0.3 UMOL/G IN DIET FOR 10 WK BEGINNING 1 WK PRIOR TO FIRST CARCINOGEN DOSE (STUDY DURATION: 28 WK), Route [Inhibitor]: ORAL, Strain/Sex: A/J/FEMALE, Target Tissue: Type of Lesion: LUNG: TUMOR, Dose [Carcinogen]: 3 UMOL BAP + 3 UMOL NNK IN 0.1 ML COTTONSEED OIL 1X/WK FOR 8 WK (STUDY DURATION: 28 WK), Promoter: NONE): 100%, 100%, 0%, not calculated
- tumour outcome (control, treated, inhibition, significance) (Carcinogen: 4-(METHYLNITROSAMINO)-1-(3-PYRIDYL)-1-BUTANONE [64091-91-4], BENZO[A]PYRENE [50-32-8], Dose [Inhibitor]: 1 UMOL/G IN DIET FOR 10 WK BEGINNING 1 WK PRIOR TO FIRST CARCINOGEN DOSE (STUDY DURATION: 28 WK), Route [Inhibitor]: ORAL, Strain/Sex: A/J/FEMALE, Target Tissue: Type of Lesion: LUNG: TUMOR, Dose [Carcinogen]: 3 UMOL BAP + 3 UMOL NNK IN 0.1 ML COTTONSEED OIL 1X/WK FOR 8 WK (STUDY DURATION: 28 WK), Promoter: NONE): 100%, 100%, 0%, not calculated
- tumour outcome (control, treated, inhibition, significance) (Carcinogen: 4-(METHYLNITROSAMINO)-1-(3-PYRIDYL)-1-BUTANONE [64091-91-4], BENZO[A]PYRENE [50-32-8], Dose [Inhibitor]: 3 UMOL/G IN DIET FOR 10 WK BEGINNING 1 WK PRIOR TO FIRST CARCINOGEN DOSE (STUDY DURATION: 28 WK), Route [Inhibitor]: ORAL, Strain/Sex: A/J/FEMALE, Target Tissue: Type of Lesion: LUNG: TUMOR, Dose [Carcinogen]: 3 UMOL BAP + 3 UMOL NNK IN 0.1 ML COTTONSEED OIL 1X/WK FOR 8 WK (STUDY DURATION: 28 WK), Promoter: NONE): 100%, 100%, 0%, not calculated
- tumour outcome (control, treated, inhibition, significance) (Carcinogen: 4-(METHYLNITROSAMINO)-1-(3-PYRIDYL)-1-BUTANONE [64091-91-4], BENZO[A]PYRENE [50-32-8], Dose [Inhibitor]: 6 UMOL IN 0.1 ML COTTONSEED OIL 1X/WK FOR 8 WK 2 PRIOR TO EACH CARCINOGEN DOSE (STUDY DURATION: 16 WK), Route [Inhibitor]: GAVAGE, Strain/Sex: A/J/FEMALE, Target Tissue: Type of Lesion: LUNG: TUMOR, Dose [Carcinogen]: 3 UMOL BAP + 3 UMOL NNK IN 0.1 ML COTTONSEED OIL 1X/WK FOR 8 WK (STUDY DURATION: 16 WK), Promoter: NONE): 100%, 100%, 0%, not calculated
- tumour outcome (control, treated, inhibition, significance) (Carcinogen: 4-(METHYLNITROSAMINO)-1-(3-PYRIDYL)-1-BUTANONE [64091-91-4], Dose [Inhibitor]: 0.3 UMOL/G IN DIET FOR 10 WK BEGINNING 1 WK PRIOR TO FIRST CARCINOGEN DOSE (STUDY DURATION: 28 WK), Route [Inhibitor]: ORAL, Strain/Sex: A/J/FEMALE, Target Tissue: Type of Lesion: LUNG: TUMOR, Dose [Carcinogen]: 3 UMOL IN 0.1 ML COTTONSEED OIL 1X/WK FOR 8 WK (STUDY DURATION: 28 WK), Promoter: NONE): 100%, 100%, 0%, not calculated
- tumour outcome (control, treated, inhibition, significance) (Carcinogen: 4-(METHYLNITROSAMINO)-1-(3-PYRIDYL)-1-BUTANONE [64091-91-4], Dose [Inhibitor]: 1 UMOL/G IN DIET FOR 10 WK BEGINNING 1 WK PRIOR TO FIRST CARCINOGEN DOSE (STUDY DURATION: 28 WK), Route [Inhibitor]: ORAL, Strain/Sex: A/J/FEMALE, Target Tissue: Type of Lesion: LUNG: TUMOR, Dose [Carcinogen]: 3 UMOL IN 0.1 ML COTTONSEED OIL 1X/WK FOR 8 WK (STUDY DURATION: 28 WK), Promoter: NONE): 100%, 100%, 0%, not calculated
- tumour outcome (control, treated, inhibition, significance) (Carcinogen: 4-(METHYLNITROSAMINO)-1-(3-PYRIDYL)-1-BUTANONE [64091-91-4], Dose [Inhibitor]: 3 UMOL/G IN DIET FOR 10 WK BEGINNING 1 WK PRIOR TO FIRST CARCINOGEN DOSE (STUDY DURATION: 28 WK), Route [Inhibitor]: ORAL, Strain/Sex: A/J/FEMALE, Target Tissue: Type of Lesion: LUNG: TUMOR, Dose [Carcinogen]: 3 UMOL IN 0.1 ML COTTONSEED OIL 1X/WK FOR 8 WK (STUDY DURATION: 28 WK), Promoter: NONE): 100%, 100%, 0%, not calculated
- tumour outcome (control, treated, inhibition, significance) (Carcinogen: 4-(METHYLNITROSAMINO)-1-(3-PYRIDYL)-1-BUTANONE, 64091-91-4, Dose [Inhibitor]: 0, 0.2 UMOL 1/D FOR 4 D ADMINISTERED PRIOR TO CARCINOGEN TREATMENT (STUDY DURATION: 116 D), Route [Inhibitor]: GAVAGE, Strain/Sex: STRAIN A, Target Tissue: Type of Lesion: LUNG ADENOMA, Dose [Carcinogen]: 10 UMOL ONCE 2 HR AFTER FINAL DOSE OF INHIBITOR, Promoter: NONE USED): 100%, 100%, 0%, not significant
- tumour outcome (control, treated, inhibition, significance) (Carcinogen: 4-(METHYLNITROSAMINO)-1-(3-PYRIDYL)-1-BUTANONE, 64091-91-4, Dose [Inhibitor]: 0, 0.008% IN DIET FOR 17 WK BEGINNING 1 WK PRIOR TO CARCINOGEN DOSE (STUDY DURATION: 17 WK), Route [Inhibitor]: ORAL, Strain/Sex: STRAIN-A/FEMALE, Target Tissue: Type of Lesion: LUNG: ADENOMA, Dose [Carcinogen]: 10 UMOL IN 0.1 ML SALINE ONCE, Promoter: NONE USED): 100%, 96%, 4%, not significant
- tumour outcome (control, treated, inhibition, significance) (Carcinogen: 4-(METHYLNITROSAMINO)-1-(3-PYRIDYL)-1-BUTANONE, 64091-91-4, Dose [Inhibitor]: 0, 1 UMOL 1/D FOR 4 D ADMINISTERED PRIOR TO CARCINOGEN TREATMENT (STUDY DURATION: 116 D), Route [Inhibitor]: GAVAGE, Strain/Sex: STRAIN A, Target Tissue: Type of Lesion: LUNG: ADENOMA, Dose [Carcinogen]: 10 UMOL ONCE, Promoter: NONE USED): 100%, 100%, 0%, not significant
